{"source": "paper PMC6544370", "about": "(Nature, 2019)", "target": "Lp-CdnE02 (CD-NTase057) (Legionella pneumophila, UniProt P0DSP3)", "sequence (P0DSP3 whole entry, looked up)": "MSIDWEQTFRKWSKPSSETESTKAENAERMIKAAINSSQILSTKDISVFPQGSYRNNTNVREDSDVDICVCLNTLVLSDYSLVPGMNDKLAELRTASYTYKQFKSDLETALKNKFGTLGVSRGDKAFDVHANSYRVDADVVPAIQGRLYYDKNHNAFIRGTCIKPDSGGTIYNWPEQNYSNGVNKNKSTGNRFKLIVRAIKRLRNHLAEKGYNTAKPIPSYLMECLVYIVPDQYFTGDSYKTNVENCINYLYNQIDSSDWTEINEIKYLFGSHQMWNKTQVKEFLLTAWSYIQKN", "data": [{"compound": "O=c1ccn([C@@H]2O[C@H](COP(=O)(O)OP(=O)(O)OP(=O)(O)O)[C@@H](O)[C@H]2O)c(=O)[nH]1", "note": "[UTP]", "values": [{"measurement": "radiolabelled NTP, TLC and mass spectrometry", "value": "Lp-CdnE02 synthesized predominantly c-di-UMP"}]}]}
